Data as given in paper PMC11435058, “Synthesis of New Thiazole-Privileged Chalcones as Tubulin Polymerization Inhibitors with Potential Anticancer Activities” (Pharmaceuticals, 2024).

How the values were obtained:
MDA-MB-468 = test: NCI-60 anticancer screen (SRB; single dose and five doses); assay type: cell-based, human
Experimental: The methodology of the NCI anticancer screening has been described in detail elsewhere (http://www.dtp.nci.nih.gov). For detailed information, see Appendix A in the Supplementary Materials.
4.2.1. Screening of the anticancer activity against a panel of 60 cell Lines.
The methodology of the NCI anticancer screening has been described in detail elsewhere (http://www.dtp.nci.nih.gov.) Briefly, the primary anticancer assay was performed at approximately 60 human tumor cell lines panel derived from nine neoplastic diseases, in accordance with the protocol of the Drug Evaluation Branch, National Cancer Institute, Bethesda. Tested compounds were added to the culture at a single concentration (10μM) and the cultures were incubated for 48 h. End -point determinations were made with a protein binding dye, SRB. Results for each tested compound was reported as the percent of growth of the treated cells when compared to the untreated control cells. The percentage growth was evaluated spectrophotometrically versus controls not treated with test agents. […]

OVCAR-3 = test: cells; details: Homo sapiens
HL-60(TB) = test: NCI-60 anticancer screen (SRB; single dose and five doses); details: Homo sapiens
MOLT-4 = test: as above; details: Homo sapiens
A549/ATCC = test: as above; details: Homo sapiens
NCI-H226 = test: as above; details: Homo sapiens
NCI-H322M = test: as above; details: Homo sapiens
NCI-H460 = test: as above; details: Homo sapiens
NCI-H522 = test: as above; details: Homo sapiens
COLO 205 = test: as above; details: Homo sapiens
HCT-15 = test: as above; details: Homo sapiens
SW-620 = test: as above; details: Homo sapiens
SF-268 = test: as above; details: Homo sapiens
SNB-75 = test: as above; details: Homo sapiens, SNB-75, 48 h, read-out: Growth Percentage
MALME-3M = test: as above; details: Homo sapiens
M14 = test: as above; details: Homo sapiens
SK-MEL-2 = test: as above; details: Homo sapiens
UACC-257 = test: as above; details: Homo sapiens
786-0 = test: as above; details: Homo sapiens
A498 = test: as above; details: Homo sapiens
ACHN = test: as above; details: Homo sapiens
RXF 393 = test: as above; details: Homo sapiens
SN12C = test: as above; details: Homo sapiens
PC-3 = test: as above; details: Homo sapiens
BT-549 = test: as above; details: Homo sapiens
[1] = 48 h, read-out: Growth Percentage

Which results are given for `Cc1[nH]c(=S)sc1C(=O)/C=C/c1ccc(Br)cc1` [2g, (E)-3-(4-Bromophenyl)-1-(4-Methyl-2-Thioxo-2,3-Dihydrothiazol-5-yl)Prop-2-En-1-One]?
activity at 10 µM (MDA-MB-468; Homo sapiens, 48 h, MDA-MB-468, dose of 10 μM, read-out: Growth Percentage): -4.75%; GI50 (MDA-MB-468; Homo sapiens, MDA-MB-468, Breast Cancer, five dose): 1.79 µM; CC50 (MDA-MB-468; Homo sapiens, MDA-MB-468, Breast Cancer, five dose, read-out: LC50 (the source's name)): 27.2 µM; TGI (MDA-MB-468; MDA-MB-468, Breast Cancer, five dose): 6.77 µM; GI50 (OVCAR-3; OVCAR-3): 1.88 µM; activity at 10 µM (OVCAR-3; OVCAR-3, 48 h, read-out: Growth Percentage): -12.3%; CC50 (OVCAR-3; OVCAR-3, read-out: LC50): 9.7 µM; IC (TGI) (OVCAR-3; OVCAR-3, read-out: TGI): 4.27 µM; GI50 (HL-60(TB); HL-60): 1.94 µM; activity at 10 µM (HL-60(TB); HL-60, 48 h, read-out: Growth Percentage): 13.2%; CC50 (HL-60(TB); HL-60, read-out: LC50): > 100 µM; IC (TGI) (HL-60(TB); HL-60, read-out: TGI): 9.92 µM; GI50 (MOLT-4; MOLT-4): 3.57 µM; activity at 10 µM (MOLT-4; MOLT-4, 48 h, read-out: Growth Percentage): 30.2%; CC50 (MOLT-4; MOLT-4, read-out: LC50): > 100 µM; IC (TGI) (MOLT-4; MOLT-4, read-out: TGI): 36.6 µM; GI50 (A549/ATCC; A549): 11.7 µM; activity at 10 µM (A549/ATCC; A549, 48 h, read-out: Growth Percentage): 64.1%; CC50 (A549/ATCC; A549, read-out: LC50): 55.3 µM; IC (TGI) (A549/ATCC; A549, read-out: TGI): 25.4 µM; GI50 (NCI-H226; NCI-H226): 4.13 µM; activity at 10 µM (NCI-H226; NCI-H226, 48 h, read-out: Growth Percentage): 54.5%; CC50 (NCI-H226; NCI-H226, read-out: LC50): > 100 µM; IC (TGI) (NCI-H226; NCI-H226, read-out: TGI): 25.4 µM; GI50 (NCI-H322M): 3.76 µM; activity at 10 µM (NCI-H322M; [1]): 44.1%; CC50 (NCI-H322M; read-out: LC50): 41.3 µM; IC (TGI) (NCI-H322M; read-out: TGI): 15.2 µM; GI50 (NCI-H460; NCI-H460): 14.3 µM; activity at 10 µM (NCI-H460; NCI-H460, 48 h, read-out: Growth Percentage): 39.1%; CC50 (NCI-H460; NCI-H460, read-out: LC50): 80.9 µM; IC (TGI) (NCI-H460; NCI-H460, read-out: TGI): 34.1 µM; GI50 (NCI-H522; NCI-H522): 3.37 µM; activity at 10 µM (NCI-H522; NCI-H522, 48 h, read-out: Growth Percentage): 21.1%; CC50 (NCI-H522; NCI-H522, read-out: LC50): 41.2 µM; IC (TGI) (NCI-H522; NCI-H522, read-out: TGI): 14.3 µM; GI50 (COLO 205; COLO 205): 13.9 µM; activity at 10 µM (COLO 205; COLO 205, 48 h, read-out: Growth Percentage): 90%; CC50 (COLO 205; COLO 205, read-out: LC50): 80 µM; IC (TGI) (COLO 205; COLO 205, read-out: TGI): 33.3 µM; GI50 (HCT-15; HCT-15): 2.66 µM; activity at 10 µM (HCT-15; HCT-15, 48 h, read-out: Growth Percentage): 5.48%; CC50 (HCT-15; HCT-15, read-out: LC50): 36.4 µM; IC (TGI) (HCT-15; HCT-15, read-out: TGI): 10 µM; GI50 (SW-620; SW-620): 2.82 µM; activity at 10 µM (SW-620; SW-620, 48 h, read-out: Growth Percentage): 5.7%; CC50 (SW-620; SW-620, read-out: LC50): 41.6 µM; IC (TGI) (SW-620; SW-620, read-out: TGI): 11.7 µM; GI50 (SF-268; SF-268): 13.5 µM; activity at 10 µM (SF-268; SF-268, 48 h, read-out: Growth Percentage): 46.1%; CC50 (SF-268; SF-268, read-out: LC50): 64.2 µM; IC (TGI) (SF-268; SF-268, read-out: TGI): 29.5 µM; activity at 10 µM (SNB-75): 2.52%; GI50 (MALME-3M): 12.5 µM; activity at 10 µM (MALME-3M; [1]): 72.9%; CC50 (MALME-3M; read-out: LC50): 67.2 µM; IC (TGI) (MALME-3M; read-out: TGI): 29 µM; GI50 (M14; M14): 9.02 µM; activity at 10 µM (M14; M14, 48 h, read-out: Growth Percentage): 74.5%; IC (TGI) (M14; M14, read-out: TGI): 22.9 µM; GI50 (SK-MEL-2; SK-MEL-2): 5.87 µM; activity at 10 µM (SK-MEL-2; SK-MEL-2, 48 h, read-out: Growth Percentage): 62.3%; CC50 (SK-MEL-2; SK-MEL-2, read-out: LC50): 47.9 µM; IC (TGI) (SK-MEL-2; SK-MEL-2, read-out: TGI): 19.5 µM; GI50 (UACC-257; UACC-257): 11.3 µM; activity at 10 µM (UACC-257; UACC-257, 48 h, read-out: Growth Percentage): 69.1%; CC50 (UACC-257; UACC-257, read-out: LC50): 51.9 µM; IC (TGI) (UACC-257; UACC-257, read-out: TGI): 24.2 µM; GI50 (786-0; 786-0): 3.33 µM; activity at 10 µM (786-0; 786-0, 48 h, read-out: Growth Percentage): 25%; CC50 (786-0; 786-0, read-out: LC50): 41.8 µM; IC (TGI) (786-0; 786-0, read-out: TGI): 13.3 µM; GI50 (A498; A498): 13.5 µM; activity at 10 µM (A498; A498, 48 h, read-out: Growth Percentage, A498, dose of 10 μM): 109%; CC50 (A498; A498, read-out: LC50): 51.8 µM; IC (TGI) (A498; A498, read-out: TGI): 26.5 µM; GI50 (ACHN): 7.67 µM; activity at 10 µM (ACHN; [1]): 55%; CC50 (ACHN; read-out: LC50): 45.4 µM; IC (TGI) (ACHN; read-out: TGI): 20.3 µM; GI50 (RXF 393; RXF 393): 2.58 µM; activity at 10 µM (RXF 393; RXF 393, 48 h, read-out: Growth Percentage): 16%; CC50 (RXF 393; RXF 393, read-out: LC50): 33 µM; IC (TGI) (RXF 393; RXF 393, read-out: TGI): 9.43 µM; GI50 (SN12C): 3.15 µM; activity at 10 µM (SN12C; [1]): 19.2%; CC50 (SN12C; read-out: LC50): 36.8 µM; IC (TGI) (SN12C; read-out: TGI): 13.1 µM; GI50 (PC-3; PC-3): 4.68 µM; activity at 10 µM (PC-3; PC-3, 48 h, read-out: Growth Percentage): 48.8%; CC50 (PC-3; PC-3, read-out: LC50): > 100 µM; IC (TGI) (PC-3; PC-3, read-out: TGI): 26 µM; GI50 (BT-549; BT-549): 2.6 µM; activity at 10 µM (BT-549; BT-549, 48 h, read-out: Growth Percentage): 19.5%; IC (TGI) (BT-549; BT-549, read-out: TGI): 7.28 µM
